PubChem BioAssay (NCI)
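The compound was tested at five concentrations on cells cultured in 96-well plates, with a 48-hour exposure period. GI50 = concentration required for 50% inhibition of growth. TGI denotes the concentration required for complete inhibition of growth.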

Tests used:
Experiment in all cases: NCI-60 cell line screen, 48 h
HS 578T breast = system: HS 578T breast
UACC-257 melanoma = system: UACC-257 melanoma
PC-3 prostate = system: PC-3 prostate
SF-295 CNS = system: SF-295 CNS
RPMI-8226 leukemia = system: RPMI-8226 leukemia
786-0 renal = system: 786-0 renal
HL-60(TB) leukemia = system: HL-60(TB) leukemia
HCC-2998 colon = system: HCC-2998 colon
M14 melanoma = system: M14 melanoma
NCI-H522 lung = system: NCI-H522 lung
MDA-MB-231 breast = system: MDA-MB-231 breast
SK-MEL-5 melanoma = system: SK-MEL-5 melanoma
K-562 leukemia = system: K-562 leukemia
TK-10 renal = system: TK-10 renal
OVCAR-4 ovarian = system: OVCAR-4 ovarian
SF-268 CNS = system: SF-268 CNS
HOP-62 NSCLC = system: HOP-62 NSCLC
OVCAR-8 ovarian = system: OVCAR-8 ovarian
SNB-19 CNS = system: SNB-19 CNS
NCI/ADR-RES ovarian = system: NCI/ADR-RES ovarian
NCI-H460 lung = system: NCI-H460 lung
IGROV1 ovarian = system: IGROV1 ovarian
HCT-116 colon = system: HCT-116 colon
CCRF-CEM leukemia = system: CCRF-CEM leukemia
BT-549 breast = system: BT-549 breast
A498 renal = system: A498 renal
MDA-MB-435 = system: MDA-MB-435
SW-620 colon = system: SW-620 colon

Cc1nc2ccccn2c1NC(=O)NNC(=S)Nc1ccc(Cl)cc1
GI50 (HS 578T breast): > 100 µM
TGI (HS 578T breast): > 100 µM
GI50 (UACC-257 melanoma): > 100 µM
TGI (UACC-257 melanoma): > 100 µM
GI50 (PC-3 prostate): > 100 µM
TGI (PC-3 prostate): > 100 µM
GI50 (SF-295 CNS): > 100 µM
TGI (SF-295 CNS): > 100 µM
GI50 (RPMI-8226 leukemia): > 100 µM
TGI (RPMI-8226 leukemia): > 100 µM
GI50 (786-0 renal): > 100 µM
TGI (786-0 renal): > 100 µM
GI50 (HL-60(TB) leukemia): > 100 µM
TGI (HL-60(TB) leukemia): > 100 µM
GI50 (HCC-2998 colon): > 100 µM
TGI (HCC-2998 colon): > 100 µM
GI50 (M14 melanoma): > 100 µM
TGI (M14 melanoma): > 100 µM
GI50 (NCI-H522 lung): > 100 µM
TGI (NCI-H522 lung): > 100 µM
GI50 (MDA-MB-231 breast): 67.8 µM
TGI (MDA-MB-231 breast): > 100 µM
GI50 (SK-MEL-5 melanoma): > 100 µM
TGI (SK-MEL-5 melanoma): > 100 µM
GI50 (K-562 leukemia): > 100 µM
TGI (K-562 leukemia): > 100 µM
GI50 (TK-10 renal): > 100 µM
TGI (TK-10 renal): > 100 µM
GI50 (OVCAR-4 ovarian): > 100 µM
TGI (OVCAR-4 ovarian): > 100 µM
GI50 (SF-268 CNS): > 100 µM
TGI (SF-268 CNS): > 100 µM
GI50 (HOP-62 NSCLC): > 100 µM
TGI (HOP-62 NSCLC): > 100 µM
GI50 (OVCAR-8 ovarian): > 100 µM
TGI (OVCAR-8 ovarian): > 100 µM
GI50 (SNB-19 CNS): > 100 µM
TGI (SNB-19 CNS): > 100 µM
GI50 (NCI/ADR-RES ovarian): > 100 µM
TGI (NCI/ADR-RES ovarian): > 100 µM
GI50 (NCI-H460 lung): > 100 µM
TGI (NCI-H460 lung): > 100 µM
GI50 (IGROV1 ovarian): > 100 µM
TGI (IGROV1 ovarian): > 100 µM
GI50 (HCT-116 colon): > 100 µM
TGI (HCT-116 colon): > 100 µM
GI50 (CCRF-CEM leukemia): > 100 µM
TGI (CCRF-CEM leukemia): > 100 µM
GI50 (BT-549 breast): > 100 µM
TGI (BT-549 breast): > 100 µM
GI50 (A498 renal): > 100 µM
TGI (A498 renal): > 100 µM
GI50 (MDA-MB-435): > 100 µM
TGI (MDA-MB-435): > 100 µM
GI50 (SW-620 colon): > 100 µM
TGI (SW-620 colon): > 100 µM
